Columns and labels:
AVEFA = assay: Pre-emergence herbicidal action against AVEFA; format: in vivo, Avena fatua; settings: 80 g/ha, pre-emergence
In short: (§1)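 Visual rating at 3 weeks vs untreated pots; 0–100% scale, 100% = plants died. Treatment: aqueous WP/EC spray onto covering soil, 600–800 l/ha, 0.2% wetter, seeds in sandy loam.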

DIGSA [1] = assay: Pre-emergence herbicidal action against DIGSA; format: in vivo, Digitaria sanguinalis
In short: as §1

PHBPU [2] = assay: Pre-emergence herbicidal action against PHBPU; format: in vivo, Pharbitis purpurea; settings: dosage 80 g/ha
In short: as §1

ALOMY [3] = assay: Pre-emergence herbicidal action against ALOMY; format: in vivo, Alopecurus myosuroides; settings: for Pre-emergence action against ALOMY (herbicidal activity): 80 g/ha, scored visually after 3 weeks vs untreated controls (100% = plants have died, 0% = like control plants)
In short: as §1

ECHCG [4] = assay: Post-emergence herbicidal action against ECHCG; format: in vivo, Echinochloa crus-galli
In short: (§2)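 Weeds in sandy loam soil received a post-emergence spray at the one-leaf stage. Compounds were applied as WP or EC in water, 600 to 800 l/ha, with 0.2% wetting agent. Activity in % was judged visually after roughly 3 weeks against untreated plants.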

VIOTR [5] = assay: Pre-emergence herbicidal action against VIOTR; format: in vivo, Viola tricolor
In short: as §1

AMARE [6] = assay: Pre-emergence herbicidal action against AMARE; format: in vivo, Amaranthus retroflexus
In short: as §1

POLCO [7] = assay: Pre-emergence herbicidal action against POLCO; format: in vivo, Polygonum convolvulus
In short: as §1

SETVI [8] = assay: Pre-emergence herbicidal action against SETVI; format: in vivo, Setaria viridis
In short: as §1

SETVI [9] = assay: Post-emergence herbicidal action against SETVI; format: in vivo, Setaria viridis
In short: as §2

PHBPU [10] = assay: Post-emergence herbicidal action against PHBPU; format: in vivo, Pharbitis purpurea; settings: dosage 20 g/ha
In short: as §2

MATIN [11] = assay: Pre-emergence herbicidal action against MATIN; format: in vivo, Matricaria inodora
In short: as §1

ABUTH [12] = assay: Post-emergence herbicidal action against ABUTH; format: in vivo, Abutilon theophrasti; settings: visual assessment about 3 weeks after treatment vs untreated controls
In short: as §2

ABUTH [13] = assay: Pre-emergence herbicidal action against ABUTH; format: in vivo, Abutilon theophrasti; settings: for Pre-emergence action against ABUTH (herbicidal activity): 80 g/ha, scored visually after 3 weeks vs untreated controls (100% = plants have died, 0% = like control plants); for Pre-emergence action against ABUTH (herbicidal activity in percent): dosage 20 g/ha, scored visually after 3 weeks vs untreated controls, 100% = plants have died, 0% = like control plants
In short: as §1

ECHCG [14] = assay: Pre-emergence herbicidal action against ECHCG; format: in vivo, Echinochloa crus-galli
In short: as §1

POLCO [15] = assay: Post-emergence herbicidal action against POLCO; format: in vivo, Polygonum convolvulus; settings: dosage 20 g/ha
Description: Seeds of monocotyledonous and dicotyledonous weed and crop plants are laid out in sandy loam soil in wood-fiber pots, covered with soil and cultivated in a greenhouse under good growth conditions. 2 to 3 weeks after sowing, the test plants are treated at the one-leaf stage. The compounds of the invention, formulated in the form of wettable powders (WP) or as emulsion concentrates (EC), are then sprayed onto the green parts of the plants in the form of an aqueous suspension or emulsion at a water application rate equivalent to 600 to 800 l/ha, with addition of 0.2% wetting agent. After the test plants have been left to stand in the greenhouse under optimal growth conditions for about 3 weeks, the action of the preparations is assessed visually in comparison to untreated controls (herbicidal action in percent (%): 100% activity=the plants have died, 0% activity=like control plants). […] The tables below illustrate, in an illustrative manner, the post-emergence herbicidal action of the compounds of the invention, the herbicidal activity being stated in percent.

MATIN [16] = assay: Post-emergence herbicidal action against MATIN; format: in vivo, Matricaria inodora
In short: as §2

ALOMY [17] = assay: Post-emergence herbicidal action against ALOMY; format: in vivo, Alopecurus myosuroides; settings: dosage 20 g/ha, visual assessment about 3 weeks after treatment vs untreated controls
In short: as §2

VIOTR [18] = assay: Post-emergence herbicidal action against VIOTR; format: in vivo, Viola tricolor
In short: as §2

VERPE [19] = assay: Pre-emergence herbicidal action against VERPE; format: in vivo, Veronica persica; settings: dosage 80 g/ha
In short: as §1

AMARE [20] = assay: Post-emergence herbicidal action against AMARE; format: in vivo, Amaranthus retroflexus; settings: 20 g/ha, visual assessment about 3 weeks after treatment, 100% = plants have died, 0% = like control plants
In short: as §2

VERPE [21] = assay: Post-emergence herbicidal action against VERPE; format: in vivo, Veronica persica; settings: 20 g/ha
In short: as §2

DIGSA [22] = assay: Post-emergence herbicidal action against DIGSA; format: in vivo, Digitaria sanguinalis
In short: as §2

[23] = 20 g/ha, scored visually after 3 weeks vs untreated controls, 100% = plants have died, 0% = like control plants
[24] = 80 g/ha, scored visually after 3 weeks vs untreated controls (100% = plants have died, 0% = like control plants)

Row | SMILES | Pre-emergence action against AVEFA in % (AVEFA) [%] | Pre-emergence action against DIGSA in % (DIGSA [1]; dosage 20 g/ha) [%] | Pre-emergence action against DIGSA in % (DIGSA [1]; dosage 80 g/ha) [%] | Pre-emergence action against PHBPU in % (PHBPU [2]) [%] | Pre-emergence action against ALOMY (herbicidal activity) (ALOMY [3]) [%] | Post-emergence action against ECHCG in % (ECHCG [4]; dosage 5 g/ha) [%] | Post-emergence action against ECHCG in % (ECHCG [4]; dosage 20 g/ha) [%] | Pre-emergence action against VIOTR in % (VIOTR [5]; dosage 20 g/ha) [%] | Pre-emergence action against VIOTR in % (VIOTR [5]; dosage 80 g/ha) [%] | Pre-emergence action against AMARE in % (AMARE [6]; [23]) [%] | Pre-emergence action against AMARE in % (AMARE [6]; [24]) [%] | Pre-emergence action against POLCO in % (POLCO [7]; dosage 80 g/ha) [%] | Pre-emergence action against SETVI in % (SETVI [8]; dosage 80 g/ha) [%] | Post-emergence action against SETVI in % (SETVI [9]; dosage 20 g/ha) [%] | Post-emergence action against PHBPU in % (PHBPU [10]) [%] | Pre-emergence action against MATIN in % (MATIN [11]; dosage 20 g/ha) [%] | Pre-emergence action against MATIN in % (MATIN [11]; dosage 80 g/ha) [%] | Pre-emergence action against ABUTH (herbicidal activity) (ABUTH [13]) [%] | Pre-emergence action against ECHCG in % (ECHCG [14]; 80 g/ha) [%] | Post-emergence action against POLCO in % (POLCO [15]) [%] | other results
1 | CCn1nnnc1NC(=O)c1ccc(C(F)(F)F)c(C(=O)NCC(F)F)c1C [Example 2-30] | 100 | 100 | 100 | 80 | 100 | 80 | 80 | 100 | 100 | 100 | 100 | 80 | 100 | 80 | 90 | 100 | 100 | 100 | 100 | 80 | Pre-emergence action against POLCO in % (POLCO [7]; dosage 20 g/ha): 80%; Pre-emergence action against SETVI in % (SETVI [8]; dosage 20 g/ha): 100%; Post-emergence action against ABUTH in % (ABUTH [12]; dosage 5 g/ha): 80%; Post-emergence action against ABUTH in % (ABUTH [12]; dosage 20 g/ha): 80%
2 | CCn1nnnc1NC(=O)c1ccc(Br)c(C(=O)NCC2CC2)c1Cl [Example 2-180] | 80 | 100 | 100 | 100 | 100 |  | 90 | 100 | 100 | 100 | 100 | 90 | 100 | 90 | 90 | 100 | 100 | 100 | 100 | 100 | Pre-emergence action against ALOMY (ALOMY [3]; 20 g/ha, scored visually after 3 weeks, 100% = plants have died, 0% = like control plants): 80%; Post-emergence action against MATIN in % (MATIN [16]; dosage 20 g/ha): 80%; Post-emergence action against ALOMY in % (ALOMY [17]): 90%; Post-emergence action against VIOTR in % (VIOTR [18]; 20 g/ha): 100%; Pre-emergence action against ABUTH (herbicidal activity in percent) (ABUTH [13]): 100%
3 | CCNC(=O)c1c(C(F)F)ccc(C(=O)Nc2nnnn2CC)c1C1CC1 [Example 2-305] |  | 100 | 100 | 90 |  | 90 | 90 | 90 | 100 | 100 | 100 |  | 80 | 90 | 90 | 100 | 100 | 100 | 100 | 100 | Pre-emergence action against VERPE in % (VERPE [19]): 100%; Post-emergence action against MATIN in % (MATIN [16]; dosage 5 g/ha): 80%; Post-emergence action against MATIN in % (MATIN [16]; dosage 20 g/ha): 90%; Post-emergence action against VIOTR in % (VIOTR [18]; 5 g/ha): 80%; Post-emergence action against VIOTR in % (VIOTR [18]; 20 g/ha): 90%; Post-emergence action against SETVI in % (SETVI [9]; dosage 5 g/ha): 90%; Post-emergence action at 20 g/ha against AMARE in % (AMARE [20]): 100%; Post-emergence action against ABUTH in % (ABUTH [12]; dosage 5 g/ha): 80%; Post-emergence action against ABUTH in % (ABUTH [12]; dosage 20 g/ha): 90%; Pre-emergence action against ABUTH (herbicidal activity in percent) (ABUTH [13]): 100%; Pre-emergence action against ECHCG in % (ECHCG [14]; 20 g/ha): 80%; Post-emergence action against VERPE in % (VERPE [21]): 90%; Post-emergence action against DIGSA in % (DIGSA [22]; 5 g/ha): 80%; Post-emergence action against DIGSA (DIGSA [22]; 20 g/ha): 90%
